“And” between values parts separate entries of the source, which are not always exact repeats. Equal values may be shown once.
Columns and labels:
[1] = test system: B-1,3-glucanase; test: Aniline blue plate assay for B-glucanase activity (screening); type: in vivo, sugar beet; conditions: cumulative results, 6 days after treatment
Protocol: (§1) The leaf penultimate to the oldest true leaf was treated with one of the Bacillus strains. […] The plants were kept at 28+/−2° C. for 6 days at which time the apoplastic proteins were collected as described by Klement (1965), with the following modification: a buffer containing 150 mM NaCl and 25 mM MES, pH 6.2, was substituted for distilled water. The proteins were quantified by Bradford reagent (Bio-Red) using bovine serum albumin as standards and frozen at −80° C. until analyzed.
Apoplastic protein (0.75, 0.50, and 0.25 ug for each sample in replicates of 3) was added to 3-mm diameter wells in a 0.5% agarose gel containing 0.005% aniline blue (MCB) and 0.5m.1/ml laminarin (from Laminaria digitata, Sigma) in a 14 cm diameter glass petri plate, along with laminarinase (Penicillium spp., Sigma) standards (2×10.5−2×10^−3 units of lamina˜inase). The plates were incubated at 30° C. for 18-24 hours. Following Incubation, the pink lytic zones on a blue background were measured while the plate was on a white light source. Specific activity (ug of glucose released/min/mg of apoplastic protein) was determined by comparison of the lytic zone diameter of the standards and the apoplastic samples.

[2] = test system: Chitinase; test: Chitinase specific activity of apoplastic protein by plate assay, six days post treatment; type: in vivo, sugar beet; conditions: distal leaves
Protocol: (§2) One leaf per replicate was collected for each treatment and immediately placed in buffer (150 mm NaCl, 25 mm MES, pH 6-2). Apoplast extractions were collected as described by Klement having substituted buffer (150 mM NaCl, 25 mm MES. pH 6.2) for water.
Chitinase Specific Activity Determination by Plate Assay Sodium phosphate buffer (pH 5.0, 0.01 M) containing 1 agarose and 0.1% glycol chitin was added to a 9 cm diameter glass petri dish. Wells, 3 mm diameter, were excised from the agarose (three per sample for each of the three replicates per treatment). Dilutions of apoplastic protein (0.7, 0.35, and 0.23 ug) and chitinase standards (chitinase from Streptomycesgriseus Sigma) were loaded into the wells. The plate was incubated at 37° C. for 24 h. Following the incubation, 50 ml of 500 mMTris-HCl (pH 8.9) containing 0.01% fluorescent brightener was added to the plate and incubated for 10 min. The plate was then quickly rinsed 3× with water, flooded with water, and destained overnight in the dark. Non-fluorescent lytic regions on a fluorescent background were measured while the plate was on an uv light source. Specific activity (mg of N-acetyl-n-glucosamine released /hr /mg of apoplastic protein) was determined by comparison of the diameters of the lytic regions for the standards and the lytic regions for the apoplastic protein samples [55]. Results

[3] = test system: salicylic acid; design: species or system sugar beet; conditions: in vivo
[4] = test system: chitinase and B-1,3-glucanase; test: Combined glycol chitin and aniline blue plate assays as predictor of SAR induction; type: in vivo, sugar beet; design: key: ✓: correctly identified all SAR-inducing isolates, indicated by check marks in Table 5; conditions: identified as SAR-inducer by increased activity of both defense proteins
Excerpt: There may be circumstances where the occurrence of chitinase and B-glucanase alone is not correlated with disease control (Punja, 2001), especially with fungal pathogens, since the enzymes function synergistically (Melchers and Stuiver, 2000). Therefore examination of the defense proteins together provides a more accurate prediction of disease control capability. Based on the assumption that increased activity for both defense proteins indicated SAR-inducing capacity, combined results from the glycol chitin and aniline blue plate assays correctly identified all SAR-inducing isolates, indicated by check marks in Table 5.

[5] = test system: Cercospora beticola; design: species or system sugar beet; conditions: in vivo
[6] = test system: B-1,3-glucanase; test: B-1,3-glucanase specific activity of apoplastic protein (glucose release from laminarin); type: in vivo, sugar beet; conditions: distal leaves, six days post treatment
Protocol: as §2
The specific activity of sugar beet apoplastic B-1,3-glucanase was determined by measuring the release of glucose units from laminarin. Sodium acetate buffer (100 IJI, pH 5.0, 100 mM) containing 0.5% laminarin and 0.5 ug-2.0 ug apoplastic protein (plants per treatment replicated 3 times) was incubated at 3rc for 30-60 min. Following incubation, 900 ul of water and 1 ml of alkaline copper reagent was added to each 2 reaction. The tubes were then placed into a boiling water bath for 10 min. After cooling on ice, 1 ml arsenomolybdate color reagent was added to each reaction. Once the bubbling had subsided, 10 ml of water were added to each tube before reading the A660.

[7] = test system: Cercospora beticola; design: species or system sugar beet; conditions: in vivo; remark: listed apart in the source
[8] = test system: Chitinase; test: Glycol chitin plate assay for chitinase activity (screening); type: in vivo, sugar beet; conditions: cumulative results, 6 days after treatment
Protocol: as §1
Apoplastic protein (0.009, 0.006, and 0.005 ug for each sample in replicates of 3) was added to wells in a 1% agarose gel containing 0.01% glycol chitin in a 14 cm diameter glass petri plate, along with chitinase standards (Streptomyces griseus, Sigma). The plates were incubated at 37° C. for 24 hours. Following incubation. 50 ml of 500 mM Tris-HCl (pH 8.9) containing 0.01°/fluorescent brightener was added to the plate for 10 min. The plate was then rinsed three times with distilled water, flooded with water, and allowed to destain in the dark for 2-24 hours. The non-fluorescent lytic zones on a fluorescent background were measured while the plate was on a 302 nm UV light source. Specific activity (mg of N-acetyl-D-glucosamine released/hr/mg of apoplastic protein) was determined by comparison of the lyric zone diameter of the standards and the apoplastic samples (Velasquez. 2002).

[9] = test system: Fusarium culmorum isolate 2279; design: species or system spring wheat; conditions: in vivo
[10] = test system: hydrogen peroxide production; test: Phenol red oxidation assay for biphasic hydrogen peroxide production in protoplasts and leaf disks; type: cell-based, sugar beet
Protocol: Sugar beet protoplasts were isolated from sugar beet leaves to provide a medium to measure hydrogen peroxide production. Sugar beet leaves were gently brushed on the adaxial and abaxial surfaces with a 50 ft bristle brush to create small abrasions. The leaves were then cut into 1 cm strips and vacuum infiltrated for 5 min with 0.7 M sucrose containing 3.8% CaCL2, CPW salts (Frearson et al, 1973), 1.2% cellulase (Sigma), and 0.4% macerozyme (ICN Biomedicals). The infiltrated leaves were incubated in the 0.7M sucrose-salt and enzyme solution for 24-48 hours in the dark. […]
To determine if the Bacillus strains elicited biphasic hydrogen peroxide production in sugar beet, phenol red oxidation assays were performed according to Pick and Keisari (1980). […] The amount of hydrogen peroxide produced from protoplasts in response to treatment with a Bacillus control agent was calculated as follows: amount of hydrogen peroxide produced in Bacillus protoplast reactions—(amount of hydrogen peroxide produced in protoplast only reactions+amount of hydrogen peroxide produced in Bacillus-only reaction). The amount of hydrogen peroxide produced by the leaf disks in response to Bacillus treatment was calculated as follows: amount of hydrogen peroxide produced by Bacillus-treated leaf disks-amount of hydrogen peroxide produced by leaf disks only reaction.

[11] = test system: NPR1; design: species or system sugar beet; conditions: in vivo
[12] = test system: Peroxidase; test: Apoplastic peroxidase activity (guaiacol reagent); type: in vivo, sugar beet; conditions: distal leaves, six days post treatment
Protocol: The concentration of protein as adjusted to give a change in absorbance units greater than 0.100, but less than 0.200, per minute. Specific activity was expressed as the increase inabsorbance (A470) over time (2 min) per mg of protein, as determined using Bradford reagent (BioRAD).

[13] = test system: Botrytis cinerea; design: species or system Arabidopsis thaliana; conditions: in vivo
[14] = test system: C. beticola; test: Field studies of Cercospora leaf spot control, Sidney, Mont.; design: species or system sugar beet; conditions: in vivo
Protocol: Field studies were conducted at the Eastern Agricultural Research Center in Sidney, Mont. from 1996 through 2003. Sugar beet variety ‘Beta 1996’ was planted the first year, VDH 66140 was planted the second year, HH88 the third year, KW2262 the fourth year and Beta 2185 the fifth, sixth, and seventh years. All cultivars were equally susceptible to C. beticola infection (BetaSeed, Shakopee, Minn., U.S.A.). […] In the last two years, freshly grown, washed cells were harvested from a 24 h tryptic soy broth culture grown at room temperature and prepared as described above, and applied to the plants. Fungicide treatments included triphenyltin hydroxide (TPTFI, SuperTin, Griffin L.L.C.), propiconazole (Tilt, Syngenta Crop Protection, Inc) and tetraconazole (Eminent, Sipeam Agro USA Inc.) that were applied at 390, 253 and 876 g ai ha^−1, respectively. All treatments were applied at 1761 ha^−1 using a CO2 backpack sprayer with a 4-nozzle boom starting at disease onset and continued at 14 day intervals for a total of four sprays. Plots were arranged “in a randomized complete block design. with six replicates per treatment. […] Area under the disease progress curve (AUDPC) was calculated for treated and untreated plants and percent disease control was determined as follows: 1-([…])*100. […]

For CSC(=O)c1cccc2nnsc12 [ASM, Acibenzolar-S-methyl], the Aniline blue plates [1] was 5.70a, the “Specific Activity Chitinase” value [2] was 1.26 milligrams of N-acetyl-n-gluco and the “total SA levels over a 48 hour sampling scheme versus time zero” value [3] was “lack of SA accumulation”. The “Aniline blue and glycol chitin plates” value [4] was “✓”, the disease reduction [5] was 50% and the “Specific Activity Beta-glycanase” value [6] was 198.6 micrograms of glucose released per minute per milligram of apoplastic protein. The “% Reduction at 21 DPC” value [7] was 63.6% and 64.6%, the Glycol chitin plates [8] was 3.09hed and the “Disease Severity Index (%)” value [9] was 60.43% and 46.88% and 42.73 b % and 48.97% and 37.53 ab % and 47.31 b %. The “biphasic hydrogen peroxide production” value [10] was “did not induce biphasic hydrogen peroxide production”, the “activation of NPR1” value [11] was “activated NPR1 by 48 hours” and the “Specific Activity Peroxidase” value [12] was 71.4 changes in absorbance (470 nm) per minute per milligram of apoplastic protein.
In the case of C=CCOC1=NS(=O)(=O)c2ccccc21 [PBZ, Probenazole], the “% disease reduction in comparison to distilled water” value (“% disease reduction in comparison” for short) [13] is reported as 41.9 c %.
For O=C(O)c1ccccc1O [SA, salicylic acid], the “activation of NPR1” value [11] was “activated NPR1 by 48 hours”.
In the case of [OH][Sn]([c]1ccccc1)([c]1ccccc1)[c]1ccccc1 [TPTH, triphenyltin hydroxide], the “Disease Reduction by Year” value [14] is reported as 81% and 90% and 94% and 72% and 88^d %.
In the case of O=P(O)(O)CCCl [ethephon, 2-chloroethylphosphonic acid], the “% disease reduction in comparison” value [13] is reported as 28.1 b %.
In the case of CC/C=C\CC1C(=O)CCC1CC(=O)OC (centres unmarked) [methyl jasmonate], the “% disease reduction in comparison” value [13] is reported as 49.9 d %.

— patent US8524222B2, “Bacillus isolates and methods of their use to protect against plant pathogens and virus transmission” (Montana State University, priority 2006, dated 2013)
